In publication PMC3626250, “Effects of Borneol on Pharmacokinetics and Tissue Distribution of Notoginsenoside R1 and Ginsenosides Rg1 and Re in Panax notoginseng in Rabbits” (Journal of Analytical Methods in Chemistry, 2013):
Where two headings read alike, the source gives them in different places.

Experiments:
[1] = system: Caco-2 cells; assay: MTT cytotoxicity assay toward Caco-2 cells; type: cell-based; settings: chosen for transport study
Procedure: The Caco-2 cells were cultured in Dulbecco's modified Eagle's medium (DMEM) supplemented with 20% foetal bovine serum, 1% nonessential amino acids and penicillin-streptomycin, at 37°C in an atmosphere with a relative humidity of 95% and a CO2 flow of 5%. Medium was replaced every 2-3 days. When the cell monolayer reached 80% confluence, the cells were detached with a solution of 0.02% EDTA and 0.25% trypsin. The vinblastine-selected Caco-2 cells were cultivated in the presence of 10 nM vinblastine to induce P-glycoprotein (P-gp) expression. The culture medium was changed to a fresh medium without vinblastine 24 h before experiments, and the cells were used between passages 25 and 46. Prior to the transport study, cytotoxicity of NGR1, GRg1, GRe, and Borneol toward Caco-2 cells was determined using MTT assays. Noncytotoxic concentrations of 500 μM NGR1, GRg1, GRe, and 200 μM Borneol (dissolved in DMSO) were chosen for transport study.

[2] = Tissue distribution study in rabbits after oral Panax notoginseng extract with or without Borneol; type: in vivo, New Zealand rabbits; settings: New Zealand, rabbit; for Kp at 1 h: oral, Borneol combined with Panax notoginseng; for concentration at 0.5 h / concentration at 1 h / concentration at 3 h: po; for concentration at 3 h: 3 mL·kg^−1, 3.0 h
Procedure: Frozen plasma and tissue samples were thawed in a water bath at 37°C and were then vortexed followed by centrifuging at 5000 r·min^−1 for 5 min. An aliquot of 1.0 mL of the supernatant from each sample was loaded onto C18 Bond Elute Solid phase extraction (SPE) cartridges (1000 mg, 1 cc reservoir, Varian, Harbor City, CA, USA) pretreated with 2.0 mL hexane, isopropanol, methanol, and water, sequentially. The SPE cartridges were then washed with 1.0 mL water, 20% methanol/water solution, 40% methanol/water solution, and 60% methanol/water solution, sequentially. Finally, analytes were eluted twice with 1.0 mL of 70% methanol/water solution. The eluant was evaporated to dryness under nitrogen. The residues were then reconstituted in 1.0 mL mobile phase. An aliquot of 10 μL was injected into the LC-MS system.
One group of rabbits (n = 18) was orally administered a dose of 3.0 mL·kg^−1 Panax notoginseng extract, while another group of rabbits (n = 18) was orally given 3.0 mL·kg^−1 Panax notoginseng extract combined with Borneol. At 0.5, 1, and 3 h after administration, blood samples were collected from the central ear artery of six rabbits from each group, and the heart, liver, lung, kidney, and brain were immediately removed after animals were sacrificed by decapitation. An accurately weighed amount of tissue (1 g) was collected to be rinsed, dried, minced, and homogenized (400 r·min^−1) in normal saline (1.5 mL). All of the samples were stored at −70°C and were processed prior to analysis with the proposed method as described in Section 2.6.

[3] = system: vinblastine-selected Caco-2 cells; assay: Transport studies across Caco-2 monolayers (P app, efflux ratio); type: in vitro ADME
Procedure: Medium was replaced every 2-3 days. […] The vinblastine-selected Caco-2 cells were cultivated in the presence of 10 nM vinblastine to induce P-glycoprotein (P-gp) expression. […] Prior to the transport study, cytotoxicity of NGR1, GRg1, GRe, and Borneol toward Caco-2 cells was determined using MTT assays.
In transport studies, vinblastine-selected Caco-2 cells were seeded on polycarbonate filter of transwells for 18–21 days before starting transport study, and the monolayers with the transepithelial electrical resistance (TEER) values greater than 300 Ωcm^2 were used. Caco-2 monolayers were rinsed twice with Hanks' balanced salt solution (HBSS) and preincubated in HBSS at 37°C for 30 min before starting experiments. To start the experiments, 500 μM of NGR1, GRg1, and GRe in final concentrations were added to the donor side with or without 200 μM Borneol and then incubated at 37°C. […] After each sampling, 0.1 mL of HBSS was added to the receiver chamber to maintain a constant volume. All the experiments were performed five times in duplicate. The collected samples were stored at −20°C until HPLC analysis. During the above transport studies, the TEER values were also monitored before and at the end of each experiment. Apparent permeability coefficients (P app) were then calculated according to the following equation: (1) Papp=(dC/dt×V)/(A×C0), where dC/dt is the rate of the test compound appearing in the receiver chamber, V is the volume of the solution in the receiver chamber, A is the cell monolayer surface area, and C 0 is the initial concentration of the test compound added in the donor chamber.
The efflux ratio (Er) was calculated using the following equation: (2) Er=Papp(basolateral-apical)/Papp(apical-basolateral).

Kp at 1 h ([2]; brain, peak levels at 1.0 h, read-out: level in brain, fold higher than the plasma concentrations): 1.14
concentration at 0.5 h ([2]; brain, 3 mL·kg^−1, 0.5 h, oral Panax notoginseng with Borneol, read-out: Concentration in brain): 1800 ± 420 ng/g
concentration at 0.5 h ([2]; brain, 3 mL·kg^−1, 0.5 h, oral Panax notoginseng, read-out: Concentration in brain): 1050 ± 420 ng/g
concentration at 1 h ([2]; brain, 3 mL·kg^−1, 1.0 h, oral Panax notoginseng, read-out: Concentration in brain): 1210 ± 280 ng/g
concentration at 3 h ([2]; brain, oral Panax notoginseng with Borneol, read-out: Concentration in brain): 1650 ± 230 ng/g
concentration at 3 h ([2]; brain, oral Panax notoginseng, read-out: Concentration in brain): 630 ± 120 ng/g
concentration at 1 h ([2]; brain, 1.0 h, oral Panax notoginseng with Borneol, read-out: Concentration in brain): 2760 ± 630 ng/g
Kp at 1 h ([2]; heart, peak levels at 1.0 h, read-out: level in heart, fold higher than the plasma concentrations): 1.35
concentration at 0.5 h ([2]; heart, 3 mL·kg^−1, 0.5 h, oral Panax notoginseng with Borneol, read-out: Concentration in heart): 2810 ± 740 ng/g
concentration at 0.5 h ([2]; heart, 3 mL·kg^−1, 0.5 h, oral Panax notoginseng, read-out: Concentration in heart): 1650 ± 530 ng/g
concentration at 1 h ([2]; heart, 3 mL·kg^−1, 1.0 h, oral Panax notoginseng, read-out: Concentration in heart): 2110 ± 280 ng/g
concentration at 3 h ([2]; heart, oral Panax notoginseng with Borneol, read-out: Concentration in heart): 2240 ± 540 ng/g
concentration at 3 h ([2]; heart, oral Panax notoginseng, read-out: Concentration in heart): 1140 ± 130 ng/g
concentration at 1 h ([2]; heart, 1.0 h, oral Panax notoginseng with Borneol, read-out: Concentration in heart): 3280 ± 430 ng/g
Kp at 1 h ([2]; kidney, at 1.0 h, read-out: level in kidney, fold higher than the plasma concentrations): 1
concentration at 0.5 h ([2]; kidney, 3 mL·kg^−1, 0.5 h, oral Panax notoginseng with Borneol, read-out: Concentration in kidney): 2840 ± 530 ng/g
concentration at 0.5 h ([2]; kidney, 3 mL·kg^−1, 0.5 h, oral Panax notoginseng, read-out: Concentration in kidney): 1630 ± 180 ng/g
concentration at 1 h ([2]; kidney, 3 mL·kg^−1, 1.0 h, oral Panax notoginseng, read-out: Concentration in kidney): 1530 ± 220 ng/g
concentration at 3 h ([2]; kidney, oral Panax notoginseng with Borneol, read-out: Concentration in kidney): 1610 ± 450 ng/g
concentration at 3 h ([2]; kidney, oral Panax notoginseng, read-out: Concentration in kidney): 1150 ± 130 ng/g
concentration at 1 h ([2]; kidney, 1.0 h, oral Panax notoginseng with Borneol, read-out: Concentration in kidney): 2430 ± 290 ng/g
Kp at 1 h ([2]; liver, peak levels at 1.0 h, read-out: level in liver, fold higher than the plasma concentrations): 1.97
concentration at 0.5 h ([2]; liver, 3 mL·kg^−1, 0.5 h, oral Panax notoginseng with Borneol, read-out: Concentration in liver): 3600 ± 460 ng/g
concentration at 0.5 h ([2]; liver, 3 mL·kg^−1, 0.5 h, oral Panax notoginseng, read-out: Concentration in liver): 990 ± 330 ng/g
concentration at 1 h ([2]; liver, 3 mL·kg^−1, 1.0 h, oral Panax notoginseng, read-out: Concentration in liver): 1300 ± 250 ng/g
concentration at 3 h ([2]; liver, oral Panax notoginseng with Borneol, read-out: Concentration in liver): 2630 ± 810 ng/g
concentration at 3 h ([2]; liver, oral Panax notoginseng, read-out: Concentration in liver): 690 ± 110 ng/g
concentration at 1 h ([2]; liver, 1.0 h, oral Panax notoginseng with Borneol, read-out: Concentration in liver): 4770 ± 420 ng/g
Kp at 1 h ([2]; lung, peak levels at 1.0 h, read-out: level in lung, fold higher than the plasma concentrations): 1.24
concentration at 0.5 h ([2]; lung, 3 mL·kg^−1, 0.5 h, oral Panax notoginseng with Borneol, read-out: Concentration in lung): 2480 ± 690 ng/g
concentration at 0.5 h ([2]; lung, 3 mL·kg^−1, 0.5 h, oral Panax notoginseng, read-out: Concentration in lung): 700 ± 410 ng/g
concentration at 1 h ([2]; lung, 3 mL·kg^−1, 1.0 h, oral Panax notoginseng, read-out: Concentration in lung): 920 ± 130 ng/g
concentration at 3 h ([2]; lung, oral Panax notoginseng with Borneol, read-out: Concentration in lung): 1530 ± 450 ng/g
concentration at 3 h ([2]; lung, oral Panax notoginseng, read-out: Concentration in lung): 310 ± 440 ng/g
concentration at 1 h ([2]; lung, 1.0 h, oral Panax notoginseng with Borneol, read-out: Concentration in lung): 2990 ± 170 ng/g
concentration at 0.5 h ([2]; plasma, 3 mL·kg^−1, 0.5 h, oral Panax notoginseng, read-out: Concentration in plasma): 1.78 ± 0.11 µg/mL
concentration at 1 h ([2]; plasma, 3 mL·kg^−1, 1.0 h, oral Panax notoginseng, read-out: Concentration in plasma): 1.9 ± 0.15 µg/mL
concentration at 3 h ([2]; plasma, oral Panax notoginseng with Borneol, read-out: Concentration in plasma): 0.87 ± 0.04 µg/mL
concentration at 3 h ([2]; plasma, oral Panax notoginseng, read-out: Concentration in plasma): 0.79 ± 0.02 µg/mL
concentration at 0.5 h ([2]; plasma, 0.5 h, oral Panax notoginseng with Borneol, read-out: Concentration in plasma): 2.68 ± 0.13 µg/mL
concentration at 1 h ([2]; plasma, 1.0 h, oral Panax notoginseng with Borneol, read-out: Concentration in plasma): 2.42 ± 0.08 µg/mL
increase of P app (apical-to-basolateral) by Borneol ([3]; 200 μM Borneol, Caco-2): 2.3 fold
increase of P app (basolateral-to-apical) by Borneol ([3]; 200 μM Borneol, Caco-2): 2.4 fold
P app values ([3]; Caco-2 monolayers, without Borneol): less than 10^−6 cm/s
substrate of P-gp ([3]; concluded from efflux ratio in vinblastine-selected Caco-2 cells): seemed not to be substrates of P-gp
SMILES: CC(C)=CCC[C@](C)(O[C@@H]1O[C@H](CO)[C@@H](O)[C@H](O)[C@H]1O)[C@H]1CC[C@]2(C)[C@@H]1[C@H](O)C[C@@H]1[C@@]3(C)CC[C@H](O)C(C)(C)[C@@H]3[C@@H](O[C@@H]3O[C@H](CO)[C@@H](O)[C@H](O)[C@H]3O[C@@H]3O[C@@H](C)[C@H](O)[C@@H](O)[C@H]3O)C[C@]12C [GRe, ginsenoside Re]
Noncytotoxic concentration [1]: 500 µM
